Source: article PMC5456363 (PLoS ONE, 2017)
Several values for one entry are separate records, joined by “and”; a condition that tells them apart may be missing. Equal values may be shown once. Non-standard residues stand in square brackets, D forms with d. Residues, ends and D or L forms follow the SMILES beside them. *: point of attachment. Orn(α-tetramethylguanidino) = CN(C)C(=N[C@@H](CCCN)C(=O)*)N(C)C

Legend:
human α-thrombin [1] = assay: human α-thrombin; conditions: up to 24 hours
[2] = 25% aqueous commercial serum; conditions: cited from earlier work
[3] = Pooled mouse serum (PAA Laboratories), commercial serum (CS); conditions: 37°C, up to 60 min
[4] = pooled CD-1 mouse plasma containing K2EDTA (EDTA plasma, EP); conditions: 37°C, up to 60 min
[5] = pooled CD-1 mouse plasma containing lithium heparin (heparin plasma, HP); conditions: 37°C, up to 60 min
[6] = “direct serum” (DS): blood in polypropylene tubes centrifuged immediately; conditions: CD-1 mice, 37°C, up to 60 min
[7] = “activated serum” (AS): serum separator tubes incubated (room temperature, 1 h), centrifuged; conditions: CD-1 mice, 37°C, up to 60 min
[8] = blood collected via cardiac puncture into a syringe containing the peptide solution (“blood”, B); conditions: CD-1 mice, 37°C, up to 60 min
[9] = Peptide stability in fresh blood taken by cardiac puncture into a syringe containing the peptide (blood, B); assay type: in vitro ADME, CD-1 mice
Experimental: (§1) All stability tests were performed at least in triplicates.

[10] = Peptide stability in direct serum (DS); assay type: in vitro ADME, CD-1 mice
Experimental: as §1

[11] = Peptide stability in activated serum (AS); assay type: in vitro ADME, CD-1 mice
Experimental: as §1

[12] = Peptide stability in commercial serum (CS); assay type: in vitro ADME, mouse
Experimental: as §1

[13] = Peptide stability in heparin plasma (HP); assay type: in vitro ADME, CD-1 mouse
Experimental: as §1

[14] = Peptide stability in EDTA plasma (EP); assay type: in vitro ADME, CD-1 mouse
Experimental: as §1

[15] = set-up: method as in PMID 27067364; conditions: 25% aqueous commercial serum; cited from earlier work
[16] = Stability and metabolites across fresh blood, serum and plasma (all six matrices); conditions: fresh blood, serum, and plasma
Experimental: Aqueous peptide solutions (3 g/L) were filled in a sterile syringe (1 mL, Dispomed Witt oHG, Gelnhausen, Deutschland) through the front end, the stainless-steel needle was attached, and blood (200 to 300 μL) was collected via cardiac puncture to obtain a peptide concentration of approximately 31,5 μmol/L. The syringe was carefully disconnected from the needle and sealed while keeping the needle in the heart. A second empty syringe was attached to the needle and 0.5 to 0.8 mL blood were collected. In parallel, the sealed syringe was gently shaken for one minute to mix the peptide solution with blood and further incubated on a Stuart Rotator SB3 (Barloworld, Scientific LTD, Stone, Staffordshire, U.K.) placed in an incubator at 37°C. […] The plasma sample designated as “blood” (B) was precipitated with trichloroacetic acid (TCA), as described below. Blood collected in the second syringe was transferred to a polypropylene tube (Eppendorf AG, Hamburg, Germany) and a BD Microtainer® serum separator tube (SST; Becton, Dickinson and Company). Polypropylene tubes were centrifuged immediately (12,000 x g, 2 to 4 min) to obtain “direct serum” (DS) as supernatant, whereas the serum separator tubes were incubated (room temperature, 1 h), centrifuged (12,000 x g, 2 min), and collected as “activated serum” (AS). Pooled mouse serum was purchased from PAA Laboratories GmbH (Pasching, Austria) and pooled CD-1 mouse plasma containing K2EDTA or lithium heparin were obtained from Innovative Research (Novi, MI, USA).
Peptides were mixed with serum or plasma to a final concentration of 31.5 μmol/L and incubated (37°C, 750 rpm; Thermomixer, Eppendorf AG, Hamburg, Germany). Aliquots (20 or 40 μL) taken after 0 and 60 min (0, 10 and 30 min for Api88) were mixed with TCA to obtain a final concentration of 3% (w/v) and incubated on ice (10 min). After centrifugation (12,000 x g, 5 min), the supernatant was neutralized with sodium hydroxide (1 mol/L) and stored at −20°C. Samples were analyzed by RP-HPLC on a Jupiter C18-column (internal diameter: 2 mm, length: 150 mm, particle size: 5 μm, pore size: 30 nm) using a linear aqueous acetonitrile gradient containing TFA (0.1%, v/v) as ion pair reagent. Peptides were detected by recording the absorbance at 214 nm and quantified by their peak areas relative to the initial peak areas (0 min). All stability tests were performed at least in triplicates.
Metabolites were identified on an Agilent 1100 LC system (Agilent Technologies, Santa Clara, CA, USA) coupled on-line via a UV-detector (absorbance recorded at 214 nm) to the electrospray ionization source on an ion trap mass spectrometer (ESI-IT-MS, Esquire HCT, Bruker Daltonics GmbH, Bremen, Germany). Samples were separated on an Aqua C18-column (inner diameter: 2 mm, length: 150 mm, particle size: 3 μm, pore size: 12.5 nm, Phenomenex; column temperature: 60°C) at a flow rate of 0.2 mL/min using a linear gradient of aqueous acetonitrile in the presence of formic acid (FA; 0.1%, v/v) as ion pair reagent. […] The ESI-IT-MS was operated in positive ion mode. Ionization was carried out at 365°C (source temperature) using nitrogen as curtain gas (40 psi) and dry gas (9 L/min). Mass spectra were acquired for an m/z range from 400 to 1300 at a scan rate of 8100 m/z-units per second in standard enhanced mode.

human α-thrombin [17] = target: T1, human α-thrombin (Homo sapiens, UniProt P00734); assay: α-Thrombin stability assay; assay type: in vitro ADME
T1 construct: with human α-Thrombin for 0, 1, and 24 hours
Experimental: Supplementary file pone.0178943.s003.tif: S3 Fig Stability of Api88, Api137, and LVPR-Onc112 against human α-thrombin. Chromatograms recorded after incubation of Api88 (a), Api137 (b), or LVPR-Onc112 (c) with human α-Thrombin for 0, 1, and 24 hours (UV absorbance). […] (TIF) Click here for additional data file.
S1 Text. Method α-Thrombin stability assay.

[18] = in vitro, mouse serum; cited from earlier work

Compound: LVPRVDKPPYLPRPRPPRrIYNr-NH2 (H-LVPRVDKPPYLPRPRPPR[dR]IYN[dR]-NH2; SMILES CC[C@H](C)[C@H](NC(=O)[C@@H](CCCNC(=N)N)NC(=O)[C@H](CCCNC(=N)N)NC(=O)[C@@H]1CCCN1C(=O)[C@@H]1CCCN1C(=O)[C@H](CCCNC(=N)N)NC(=O)[C@@H]1CCCN1C(=O)[C@H](CCCNC(=N)N)NC(=O)[C@@H]1CCCN1C(=O)[C@H](CC(C)C)NC(=O)[C@H](Cc1ccc(O)cc1)NC(=O)[C@@H]1CCCN1C(=O)[C@@H]1CCCN1C(=O)[C@H](CCCCN)NC(=O)[C@H](CC(=O)O)NC(=O)[C@@H](NC(=O)[C@H](CCCNC(=N)N)NC(=O)[C@@H]1CCCN1C(=O)[C@@H](NC(=O)[C@@H](N)CC(C)C)C(C)C)C(C)C)C(=O)N[C@@H](Cc1ccc(O)cc1)C(=O)N[C@@H](CC(N)=O)C(=O)N[C@H](CCCNC(=N)N)C(N)=O)
- cleaved bond (human α-thrombin [1]): C-terminal to Arg4 in LVPR-Onc112
- fragment found [2]: Onc112
- fragment found [3]: LVPR-Onc112(4–23); RVDKPPYLPRPRPPRrIYNr-NH2, minor and 5–23 [Onc112]; VDKPPYLPRPRPPRrIYNr-NH2
- fragment found [4]: LVPR-Onc112(4–23); RVDKPPYLPRPRPPRrIYNr-NH2, minor and 5–23 [Onc112]; VDKPPYLPRPRPPRrIYNr-NH2
- fragment found [5]: LVPR-Onc112(4–23); RVDKPPYLPRPRPPRrIYNr-NH2, minor and 5–23 [Onc112]; VDKPPYLPRPRPPRrIYNr-NH2
- fragment found [6]: LVPR-Onc112(4–23); RVDKPPYLPRPRPPRrIYNr-NH2, minor and 5–23 [Onc112]; VDKPPYLPRPRPPRrIYNr-NH2
- fragment found [7]: LVPR-Onc112(4–23); RVDKPPYLPRPRPPRrIYNr-NH2, minor and 5–23 [Onc112]; VDKPPYLPRPRPPRrIYNr-NH2
- fragment found [8]: LVPR-Onc112(4–23); RVDKPPYLPRPRPPRrIYNr-NH2 and 5–23 [Onc112]; VDKPPYLPRPRPPRrIYNr-NH2

Compound: AAYRVDKPPYLPRPRPPRrIYNr-NH2 (H-AAYRVDKPPYLPRPRPPR[dR]IYN[dR]-NH2; SMILES CC[C@H](C)[C@H](NC(=O)[C@@H](CCCNC(=N)N)NC(=O)[C@H](CCCNC(=N)N)NC(=O)[C@@H]1CCCN1C(=O)[C@@H]1CCCN1C(=O)[C@H](CCCNC(=N)N)NC(=O)[C@@H]1CCCN1C(=O)[C@H](CCCNC(=N)N)NC(=O)[C@@H]1CCCN1C(=O)[C@H](CC(C)C)NC(=O)[C@H](Cc1ccc(O)cc1)NC(=O)[C@@H]1CCCN1C(=O)[C@@H]1CCCN1C(=O)[C@H](CCCCN)NC(=O)[C@H](CC(=O)O)NC(=O)[C@@H](NC(=O)[C@H](CCCNC(=N)N)NC(=O)[C@H](Cc1ccc(O)cc1)NC(=O)[C@H](C)NC(=O)[C@H](C)N)C(C)C)C(=O)N[C@@H](Cc1ccc(O)cc1)C(=O)N[C@@H](CC(N)=O)C(=O)N[C@H](CCCNC(=N)N)C(N)=O)
- fragment found [2]: Onc112
- fragment found [3]: 5–23 [Onc112]; VDKPPYLPRPRPPRrIYNr-NH2
- fragment found [4]: 5–23 [Onc112]; VDKPPYLPRPRPPRrIYNr-NH2
- fragment found [5]: 5–23 [Onc112]; VDKPPYLPRPRPPRrIYNr-NH2
- fragment found [6]: 5–23 [Onc112]; VDKPPYLPRPRPPRrIYNr-NH2
- fragment found [7]: 5–23 [Onc112]; VDKPPYLPRPRPPRrIYNr-NH2
- fragment found [8]: 5–23 [Onc112]; VDKPPYLPRPRPPRrIYNr-NH2

Compound: CC[C@H](C)[C@H](NC(=O)[C@@H](CCCNC(=N)N)NC(=O)[C@H](CCCNC(=N)N)NC(=O)[C@@H]1CCCN1C(=O)[C@@H]1CCCN1C(=O)[C@H](CCCNC(=N)N)NC(=O)[C@@H]1CCCN1C(=O)[C@H](CCCNC(=N)N)NC(=O)[C@@H]1CCCN1C(=O)[C@H](CC(C)C)NC(=O)[C@H](Cc1ccc(O)cc1)NC(=O)[C@@H]1CCCN1C(=O)[C@@H]1CCCN1C(=O)[C@H](CCCCN)NC(=O)[C@H](CC(=O)O)NC(=O)[C@@H](NC(=O)[C@H](CCCNC(=N)N)NC(=O)[C@H](Cc1ccc(O)cc1)NC(=O)[C@H](C)NC(=O)[C@H](C)N)C(C)C)C(=O)N[C@@H](Cc1ccc(O)cc1)C(=O)N[C@@H](CC(N)=O)C(=O)N[C@H](CCCNC(=N)N)C(N)=O [AAYR-Onc112, AAYRVDKPPYLPRPRPPRrIYNr-NH2] (H-AAYRVDKPPYLPRPRPPR[dR]IYN[dR]-NH2)
- Onc112 released relative to initial prodrug ([9]; blood, 1 h): < 3%
- Onc112 released relative to initial prodrug ([10]; 1 h): < 3%
- Onc112 released relative to initial prodrug ([11]; 1 h): < 3%
- Onc112 released relative to initial prodrug ([12]; commercial serum, 1 h): 13 ± 2%
- prodrug expected to be present in full serum ([12]; extrapolated from 25% serum data assuming three-fold faster degradation in full serum): 5%
- Onc112 released relative to initial prodrug ([13]; 1 h): 35 ± 4%
- Onc112 released relative to initial prodrug ([14]; 1 h): 40 ± 4%
- Onc112 released from linker peptide [15]: 85%
- Overall stability [16]: Low
- Sequential stability [16]: Blood = Plasma = Serum

Compound: CC[C@H](C)[C@H](NC(=O)[C@H](Cc1ccc(O)cc1)NC(=O)[C@@H](NC(=O)[C@@H]1CCCN1C(=O)[C@H](CCCNC(=N)N)NC(=O)[C@H](CC(N)=O)NC(=O)[C@H](CC(N)=O)NC(=O)[C@H](CCCN)N=C(N(C)C)N(C)C)C(C)C)C(=O)N1CCC[C@H]1C(=O)N[C@@H](CCCNC(=N)N)C(=O)N1CCC[C@H]1C(=O)N[C@@H](CCCNC(=N)N)C(=O)N1CCC[C@H]1C(=O)N1CCC[C@H]1C(=O)N[C@@H](Cc1c[nH]cn1)C(=O)N1CCC[C@H]1C(=O)N[C@@H](CCCNC(=N)N)C(=O)N[C@@H](CC(C)C)C(N)=O [Api88, gu-ONNRPVYIPRPRPPHPRL-NH2] ({Orn(α-tetramethylguanidino)}-NNRPVYIPRPRPPHPRL-NH2)
- half-life at 31.5 μmol/L ([9]; CD-1, mouse, fresh whole blood taken by cardiac puncture, indicated by the recovery after 10 min, read-out: half-life time in fresh mouse blood (converted)): ~1 h
- remaining at 10 min ([9]; CD-1, mouse, fresh whole blood, blood, 37°C, 10 min, read-out: intact peptide remaining relative to time zero): 88 ± 14%
- remaining at 0.5 h ([9]; CD-1, mouse, fresh whole blood, blood, 37°C, 30 min, read-out: intact peptide remaining relative to time zero): 30 ± 14%
- half-life time in fresh mouse blood relative to that reported for serum ([9]; blood versus reported serum half-life): 30 fold
- intact peptide remaining relative to time zero ([9]; blood, 37°C, 10 min): 88 ± 15%
- intact peptide remaining relative to time zero ([10]; 37°C, 30 min): fully degraded
- remaining at 10 min, 31.5 μmol/L ([10]; CD-1, mouse, direct serum (supernatant of blood centrifuged immediately), 37°C, 10 min, read-out: intact peptide remaining relative to time zero): 11 ± 6%
- intact peptide remaining relative to time zero ([11]; 37°C, 30 min): fully degraded
- remaining at 10 min, 31.5 μmol/L ([11]; CD-1, mouse, 37°C, 10 min, read-out: intact peptide remaining relative to time zero): 22 ± 5%
- intact peptide remaining relative to time zero ([12]; commercial serum, 37°C, 30 min): fully degraded
- remaining at 10 min, 31.5 μmol/L ([12]; mouse, commercial pooled serum, commercial serum, 37°C, 10 min, read-out: intact peptide remaining relative to time zero): 10 ± 2%
- remaining at 10 min, 31.5 μmol/L ([13]; CD-1, mouse, pooled plasma containing lithium heparin, 37°C, 10 min, read-out: intact peptide remaining relative to time zero): 77 ± 5%
- remaining at 0.5 h, 31.5 μmol/L ([13]; CD-1, mouse, pooled plasma containing lithium heparin, 37°C, 30 min, read-out: intact peptide remaining relative to time zero): 36 ± 1%
- remaining at 10 min, 31.5 μmol/L ([14]; CD-1, mouse, pooled plasma containing K2EDTA, 37°C, 10 min, read-out: intact peptide remaining relative to time zero): 48 ± 4%
- remaining at 0.5 h, 31.5 μmol/L ([14]; CD-1, mouse, pooled plasma containing K2EDTA, 37°C, 30 min, read-out: intact peptide remaining relative to time zero): 5 ± 3%
- proteolytic cleavage by human α-thrombin (human α-thrombin [17]; after one hour): completely degraded
- Overall stability [16]: Low
- Sequential stability [16]: Blood > Plasma > Serum

Compound: CC[C@H](C)[C@H](NC(=O)[C@H](Cc1ccc(O)cc1)NC(=O)[C@@H](NC(=O)[C@@H]1CCCN1C(=O)[C@H](CCCNC(=N)N)NC(=O)[C@H](CC(N)=O)NC(=O)[C@H](CC(N)=O)NC(=O)[C@H](CCCN)N=C(N(C)C)N(C)C)C(C)C)C(=O)N1CCC[C@H]1C(=O)N[C@@H](CCCNC(=N)N)C(=O)N1CCC[C@H]1C(=O)N[C@@H](CCCNC(=N)N)C(=O)N1CCC[C@H]1C(=O)N1CCC[C@H]1C(=O)N[C@@H](Cc1c[nH]cn1)C(=O)N1CCC[C@H]1C(=O)N[C@@H](CCCNC(=N)N)C(=O)N[C@@H](CC(C)C)C(=O)O [Api137, gu-ONNRPVYIPRPRPPHPRL-OH] ({Orn(α-tetramethylguanidino)}-NNRPVYIPRPRPPHPRL-OH)
- intact peptide remaining relative to time zero ([10]; 37°C, 1 h, 31.5 μmol/L): ≥ 94%
- intact peptide remaining relative to time zero ([11]; 37°C, 1 h, 31.5 μmol/L): ≥ 94%
- remaining at 1 h, 31.5 μmol/L ([12]; commercial pooled serum, commercial mouse serum, 37°C, 1 h, 31.5 μmol/L, read-out: intact peptide remaining relative to time zero): 87 ± 9%
- remaining at 1 h, 31.5 μmol/L ([13]; CD-1, mouse, pooled plasma containing lithium heparin, 37°C, 1 h, 31.5 μmol/L, read-out: intact peptide remaining relative to time zero): 83 ± 2%
- intact peptide remaining relative to time zero ([14]; 37°C, 1 h, 31.5 μmol/L): ≥ 94%
- proteolytic cleavage by human α-thrombin (human α-thrombin [17]; after 24 h): remained mostly intact
- half-life time in mouse serum [18]: 6 h
- Overall stability [16]: High
- Sequential stability [16]: Blood = Plasma = Serum
